Reference: patent US4816486A, “Amide derivatives and 5-lypoxygenase inhibitors containing the same” (Terumo Corporation, priority 1985, dated 1989)

Biological target: T1, 5-lypoxygenase (Mus musculus, UniProt P48999)
T1 construct: The supernatant was used as the 5-lypoxygenase enzyme solution; endogenous in cells; host or cells: mouse mastocytoma P815 cells (supernatant of sonicated cells)
T1 sequence (P48999 1-674): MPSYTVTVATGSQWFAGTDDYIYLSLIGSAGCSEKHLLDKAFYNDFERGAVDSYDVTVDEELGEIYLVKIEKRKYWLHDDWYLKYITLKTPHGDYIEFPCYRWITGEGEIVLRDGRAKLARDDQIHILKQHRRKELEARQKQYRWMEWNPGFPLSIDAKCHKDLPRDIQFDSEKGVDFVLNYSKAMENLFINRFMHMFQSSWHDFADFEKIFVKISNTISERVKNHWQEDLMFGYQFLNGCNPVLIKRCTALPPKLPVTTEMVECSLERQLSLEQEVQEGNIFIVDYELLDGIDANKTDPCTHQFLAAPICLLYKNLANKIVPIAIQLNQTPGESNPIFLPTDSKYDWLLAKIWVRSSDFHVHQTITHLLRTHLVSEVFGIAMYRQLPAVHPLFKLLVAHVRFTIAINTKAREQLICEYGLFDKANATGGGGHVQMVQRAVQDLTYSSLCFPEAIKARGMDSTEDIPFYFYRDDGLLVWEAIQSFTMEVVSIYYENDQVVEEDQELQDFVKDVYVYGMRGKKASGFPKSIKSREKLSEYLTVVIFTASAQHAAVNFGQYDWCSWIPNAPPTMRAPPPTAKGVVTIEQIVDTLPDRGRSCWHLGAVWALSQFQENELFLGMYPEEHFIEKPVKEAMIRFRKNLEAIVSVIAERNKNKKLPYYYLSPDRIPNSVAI
Experiment: 5-Lypoxygenase-inhibiting activity (formation of 5-HETE and LTB4 from radiolabelled arachidonic acid, supernatant of sonicated mouse mastocytoma P815 cells)
Format: biochemical
Settings: inhibition of formation of 5-HETE and LTB4; 37° C., 5 min; pH 7.4 phosphate buffer; P815 cell supernatant; indomethacine present; read-out: 50% inhibitory concentration IC50
Method: Mouse mastocytoma cells, strain P815 were diluted in a medium containing 90% of the Eagle basal medium (manufactured by Gibco Laboratories) to a cencentration of 5×10^4 cells/ml. The diluted liquor was subjected to shake culture in air at 37° C. for 48 hours. The culture liquor was cooled with ice and centrifuged to collect the cells. The cells were re-suspended in a phosphate buffer solution at pH 7.4 to a concentration of 2×10^7 cells/ml. The suspension was treated in an ultrasonic cell fragmenting machine and then centrifuged at […] for 10 min. The supernatant was used as the 5-lypoxygenase enzyme solution. To a test tube in which 20 μl of radiolabelled arachidonic acid (10 μ curies/ml), indomethacine ([…]) and an amide derivative of the invention to be tested were placed 0.45 ml of phosphate buffer solution, 0.45 ml of the above-prepared enzyme solution and 0.1 ml of 8 mM CaCl2 (calcium chloride) solution. The mixture was reacted at 37° C. for 5 min. […] Determination of the inhibitory activity was made by collecting the portion corresponding to 5-HBTE (5-(s)-hydroxy-6,8,11,14-eicosatetraenic acid) and LTB4 (leucotriene B4), which were 5-lypoxygenase products as detected with a radio-thin layer scanner (Dunnschicht-scanner II LB 2723 manufactured by Berthold), and measuring the radioactivity by means of a scintillation counter. […]

| IC50 [nM] | Compound |
| --- | --- |
| 300 | COc1cc(/C=C/C=C/C(=O)Nc2c(Br)cc(Br)cc2CN(C)C2CCCCC2)ccc1O [Example 2, N-cyclohexyl-N-methyl-(2-(5-(3-methoxy-4-hydroxyphenyl)2,4-pentadienoylamino)-3,5-dibromobenzyl)amine] |
| 4000 | COc1cc(/C=C/C(=O)Nc2c(Br)cc(Br)cc2CN(C)C2CCCCC2)ccc1O [Example 1, N-cyclohexyl-N-methyl-(2-(3-(3-methoxy-4-hydroxyphenyl)-2-propenoylamino)-3,5-dibromobenzyl)amine] |
